Reference: patent US10717718B2 (priority 2015, dated 2020)
Entries after “also recorded” stand apart in the source; their conditions may differ.

Tests used:
Format in all cases: cell-based
[1] = test system: Legionella pneumophila serogroup 1; settings: 10 mM compound, 37° C., 24 hours, click with CR110-CCH, confocal microscopy
[2] = test system: Legionella gormanii (Fluoribacter gormanii)
Escherichia coli K12 = settings: E. coli K12; 10 mM compound, 37° C., 18 hours; click with CR110-CCH; confocal microscopy
Escherichia coli O13 = test system: Escherichia coli O13

| Compound | detection / labelling signal of bacteria [1] | detection / labelling signal of bacteria [2] | detection / labelling signal of bacteria (Escherichia coli K12) | detection / labelling signal of bacteria (Escherichia coli O13) |
| --- | --- | --- | --- | --- |
| C=C(C[C@@H](O)[C@H]1OC(C)(C)O[C@@H]1[C@H](O)CN=[N+]=[N-])C(=O)OCC [Compound 8a, ethyl (4R)-4-{(4R,5R)-5-[(R)-2-azido-1-hydroxyethyl]-2,2-dimethyl-1,3-dioxolan-4-yl)-4-hydroxy-2-methylenebutanoate] | detected; also recorded: clear labelling signal | detected; also recorded: clear labelling signal | detected; also recorded: clear labelling signal | detected; also recorded: clear labelling signal |
| C=C(C[C@H](O)[C@H]1OC(C)(C)O[C@@H]1[C@H](O)CN=[N+]=[N-])C(=O)OCC [Compound 8b, ethyl (4S)-4-{(4R,5R)-5-[(R)-2-azido-1-hydroxyethyl]-2,2-dimethyl-1,3-dioxolan-4-yl)-4-hydroxy-2-methylenebutanoate] | detected; also recorded: clear labelling signal | detected; also recorded: clear labelling signal | detected; also recorded: clear labelling signal | detected; also recorded: clear labelling signal |
